Several values for one entry are separate records, joined by “and”; a condition that tells them apart may be missing. Identical values can stand only once.
Legend:
Experiment in all cases: KINOMEscan competition binding
Conditions in all cases: compound 10.0 µM
[1] = target: MATK (human) (UniProt P42679)
[2] = target: HIPK4 (human) (UniProt Q8NE63)
[3] = target: MARK4 (human) (UniProt Q96L34)
[4] = target: PKMYT1 (human) (UniProt Q99640)
[5] = target: ANKK1 (human) (UniProt Q8NFD2)
[6] = target: HUNK (human) (UniProt P57058)
[7] = target: ROCK2 (human) (UniProt O75116)
[8] = target: CHEK1 (human) (UniProt O14757)
[9] = target: AAK1 (human) (UniProt Q2M2I8)
[10] = target: RIPK2 (human) (UniProt O43353)
Sequence of RIPK2 (human) (O43353 whole entry, looked up): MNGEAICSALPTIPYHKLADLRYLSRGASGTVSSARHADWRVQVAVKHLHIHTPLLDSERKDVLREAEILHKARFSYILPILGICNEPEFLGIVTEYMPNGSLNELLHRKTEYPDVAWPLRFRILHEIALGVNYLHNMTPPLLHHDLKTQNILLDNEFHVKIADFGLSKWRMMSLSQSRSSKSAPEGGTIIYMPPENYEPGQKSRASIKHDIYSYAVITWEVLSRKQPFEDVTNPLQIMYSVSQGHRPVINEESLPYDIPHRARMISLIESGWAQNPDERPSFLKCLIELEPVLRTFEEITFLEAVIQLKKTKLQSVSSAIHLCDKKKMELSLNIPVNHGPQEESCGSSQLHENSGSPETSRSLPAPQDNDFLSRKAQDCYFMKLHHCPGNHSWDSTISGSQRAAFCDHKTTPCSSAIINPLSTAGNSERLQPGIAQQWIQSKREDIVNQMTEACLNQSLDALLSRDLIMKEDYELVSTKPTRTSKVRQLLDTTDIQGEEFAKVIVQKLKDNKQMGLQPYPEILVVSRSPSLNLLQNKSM

[11] = tested on: RET (human), P07949 [V804L]
[12] = target: TAOK3 (human) (UniProt Q9H2K8)
Sequence of TAOK3 (human) (Q9H2K8 whole entry, looked up): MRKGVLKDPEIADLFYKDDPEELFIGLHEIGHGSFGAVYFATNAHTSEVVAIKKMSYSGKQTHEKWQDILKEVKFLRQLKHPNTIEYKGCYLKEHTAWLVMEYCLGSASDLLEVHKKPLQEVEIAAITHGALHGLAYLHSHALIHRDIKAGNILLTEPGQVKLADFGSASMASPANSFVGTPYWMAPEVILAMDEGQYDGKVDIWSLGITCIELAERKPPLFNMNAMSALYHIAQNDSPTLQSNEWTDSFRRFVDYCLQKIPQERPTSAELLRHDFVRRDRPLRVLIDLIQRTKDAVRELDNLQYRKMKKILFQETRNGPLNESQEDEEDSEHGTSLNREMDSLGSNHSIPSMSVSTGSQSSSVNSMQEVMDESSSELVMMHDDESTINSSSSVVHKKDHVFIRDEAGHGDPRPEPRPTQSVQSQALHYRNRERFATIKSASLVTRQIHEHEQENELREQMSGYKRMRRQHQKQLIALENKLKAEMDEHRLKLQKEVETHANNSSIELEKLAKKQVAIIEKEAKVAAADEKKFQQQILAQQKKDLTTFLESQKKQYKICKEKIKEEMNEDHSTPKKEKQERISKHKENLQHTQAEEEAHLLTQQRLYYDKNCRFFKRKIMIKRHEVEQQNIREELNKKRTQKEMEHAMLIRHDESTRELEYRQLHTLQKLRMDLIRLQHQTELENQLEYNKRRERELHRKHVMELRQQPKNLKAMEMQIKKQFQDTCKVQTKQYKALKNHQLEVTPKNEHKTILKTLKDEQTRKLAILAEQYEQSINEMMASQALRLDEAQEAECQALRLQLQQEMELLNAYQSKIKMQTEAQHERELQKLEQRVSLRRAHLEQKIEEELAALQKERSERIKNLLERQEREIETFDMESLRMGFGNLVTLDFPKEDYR

[13] = target: NEK1 (human) (UniProt Q96PY6)
[14] = target: RPS6KA1 KD1 (human) (UniProt Q15418)
[15] = target: RPS6KA3 KD1 (human) (UniProt P51812)
[16] = target: PTK2 (human) (UniProt Q05397)
[17] = target: FLT1 (human) (UniProt P17948)
[18] = target: WEE1 (human) (UniProt P30291)
Sequence of WEE1 (human) (P30291 whole entry, looked up): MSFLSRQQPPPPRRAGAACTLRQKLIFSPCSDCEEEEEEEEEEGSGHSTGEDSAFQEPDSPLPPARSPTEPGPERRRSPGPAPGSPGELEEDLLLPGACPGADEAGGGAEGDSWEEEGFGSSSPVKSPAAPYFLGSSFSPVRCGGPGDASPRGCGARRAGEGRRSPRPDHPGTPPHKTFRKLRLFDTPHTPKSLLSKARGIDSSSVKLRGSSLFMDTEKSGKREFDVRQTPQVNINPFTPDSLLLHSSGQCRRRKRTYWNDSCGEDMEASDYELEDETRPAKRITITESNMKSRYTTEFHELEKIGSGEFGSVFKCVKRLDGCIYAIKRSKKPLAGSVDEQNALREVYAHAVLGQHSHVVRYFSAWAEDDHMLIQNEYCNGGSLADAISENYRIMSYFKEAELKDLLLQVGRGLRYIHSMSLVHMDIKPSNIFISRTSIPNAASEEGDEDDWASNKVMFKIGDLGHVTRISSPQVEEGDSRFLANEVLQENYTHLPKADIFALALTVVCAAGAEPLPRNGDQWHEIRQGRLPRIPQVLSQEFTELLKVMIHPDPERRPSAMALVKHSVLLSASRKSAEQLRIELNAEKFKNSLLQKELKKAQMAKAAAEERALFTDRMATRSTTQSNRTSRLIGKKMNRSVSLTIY

[19] = target: SRPK1 (human) (UniProt Q96SB4)
[20] = target: MAP3K15 (human) (UniProt Q6ZN16)
[21] = target: RPS6KA5 KD2 (human) (UniProt O75582)
[22] = target: PIM1 (human) (UniProt P11309)
Sequence of PIM1 (human) (P11309 whole entry, looked up): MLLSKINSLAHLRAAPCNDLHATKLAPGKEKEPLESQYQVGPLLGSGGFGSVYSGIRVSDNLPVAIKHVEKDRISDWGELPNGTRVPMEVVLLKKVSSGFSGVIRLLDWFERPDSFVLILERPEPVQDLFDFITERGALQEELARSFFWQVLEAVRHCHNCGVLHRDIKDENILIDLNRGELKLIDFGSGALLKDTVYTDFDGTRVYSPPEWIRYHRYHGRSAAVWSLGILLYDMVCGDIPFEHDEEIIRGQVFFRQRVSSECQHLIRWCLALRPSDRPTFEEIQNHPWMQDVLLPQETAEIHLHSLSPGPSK

[23] = target: EIF2AK2 (human) (UniProt P19525)
[24] = target: PLK3 (human) (UniProt Q9H4B4)
Sequence of PLK3 (human) (Q9H4B4 whole entry, looked up): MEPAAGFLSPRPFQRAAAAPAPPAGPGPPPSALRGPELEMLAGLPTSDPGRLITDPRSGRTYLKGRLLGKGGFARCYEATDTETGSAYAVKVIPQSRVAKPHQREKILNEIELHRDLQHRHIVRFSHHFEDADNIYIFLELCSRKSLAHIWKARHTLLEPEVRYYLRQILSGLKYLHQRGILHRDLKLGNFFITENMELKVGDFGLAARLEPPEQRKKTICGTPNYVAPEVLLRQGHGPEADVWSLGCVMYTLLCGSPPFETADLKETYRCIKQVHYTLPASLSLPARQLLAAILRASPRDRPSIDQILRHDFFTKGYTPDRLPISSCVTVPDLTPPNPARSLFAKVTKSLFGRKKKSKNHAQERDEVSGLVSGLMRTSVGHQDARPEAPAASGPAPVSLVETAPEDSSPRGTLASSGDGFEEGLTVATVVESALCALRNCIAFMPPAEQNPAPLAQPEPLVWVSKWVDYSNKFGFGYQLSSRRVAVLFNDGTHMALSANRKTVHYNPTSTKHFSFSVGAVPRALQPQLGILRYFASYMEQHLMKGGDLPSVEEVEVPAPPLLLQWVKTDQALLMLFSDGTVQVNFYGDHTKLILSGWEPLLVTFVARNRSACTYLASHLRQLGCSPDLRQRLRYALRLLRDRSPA

[25] = target: MINK1 (human) (UniProt Q8N4C8)
[26] = target: RPS6KA5 KD1 (human) (UniProt O75582)
[27] = target: NEK5 (human) (UniProt Q6P3R8)
[28] = target: AKT1 (human) (UniProt P31749)
[29] = target: PTK2B (human) (UniProt Q14289)
[30] = target: EPHA8 (human) (UniProt P29322)
[31] = target: NTRK3 (human) (UniProt Q16288)
[32] = target: MAPK15 (human) (UniProt Q8TD08)
[33] = target: STK4 (human) (UniProt Q13043)
[34] = target: CSF1R (human) (UniProt P07333)
Sequence of CSF1R (human) (P07333 whole entry, looked up): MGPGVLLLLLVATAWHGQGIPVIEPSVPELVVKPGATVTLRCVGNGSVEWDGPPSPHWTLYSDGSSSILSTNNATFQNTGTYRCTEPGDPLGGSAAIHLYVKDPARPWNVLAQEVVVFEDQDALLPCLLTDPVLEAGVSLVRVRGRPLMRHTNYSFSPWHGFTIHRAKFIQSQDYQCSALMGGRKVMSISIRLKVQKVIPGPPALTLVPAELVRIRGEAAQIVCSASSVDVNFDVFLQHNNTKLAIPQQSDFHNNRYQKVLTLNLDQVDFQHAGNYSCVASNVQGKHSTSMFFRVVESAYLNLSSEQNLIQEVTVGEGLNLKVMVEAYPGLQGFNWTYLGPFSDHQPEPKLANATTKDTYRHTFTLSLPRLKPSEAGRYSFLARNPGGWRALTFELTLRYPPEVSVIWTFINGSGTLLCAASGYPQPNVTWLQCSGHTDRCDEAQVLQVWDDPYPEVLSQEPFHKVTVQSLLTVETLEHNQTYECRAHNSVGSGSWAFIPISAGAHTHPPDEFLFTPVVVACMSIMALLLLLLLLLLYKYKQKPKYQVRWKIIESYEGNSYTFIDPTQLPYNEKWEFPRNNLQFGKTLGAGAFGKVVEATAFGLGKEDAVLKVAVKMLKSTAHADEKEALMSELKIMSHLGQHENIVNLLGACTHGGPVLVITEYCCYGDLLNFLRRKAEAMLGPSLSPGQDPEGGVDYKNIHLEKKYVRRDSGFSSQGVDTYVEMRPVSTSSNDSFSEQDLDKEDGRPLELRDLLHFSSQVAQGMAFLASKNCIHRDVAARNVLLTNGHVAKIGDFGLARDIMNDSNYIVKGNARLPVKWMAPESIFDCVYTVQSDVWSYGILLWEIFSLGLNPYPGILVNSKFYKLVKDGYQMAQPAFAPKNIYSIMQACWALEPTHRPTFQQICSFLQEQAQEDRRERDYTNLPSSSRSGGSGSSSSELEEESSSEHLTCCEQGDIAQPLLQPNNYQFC

[35] = target: STK36 (human) (UniProt Q9NRP7)
[36] = target: FYN (human) (UniProt P06241)
Sequence of FYN (human) (P06241 whole entry, looked up): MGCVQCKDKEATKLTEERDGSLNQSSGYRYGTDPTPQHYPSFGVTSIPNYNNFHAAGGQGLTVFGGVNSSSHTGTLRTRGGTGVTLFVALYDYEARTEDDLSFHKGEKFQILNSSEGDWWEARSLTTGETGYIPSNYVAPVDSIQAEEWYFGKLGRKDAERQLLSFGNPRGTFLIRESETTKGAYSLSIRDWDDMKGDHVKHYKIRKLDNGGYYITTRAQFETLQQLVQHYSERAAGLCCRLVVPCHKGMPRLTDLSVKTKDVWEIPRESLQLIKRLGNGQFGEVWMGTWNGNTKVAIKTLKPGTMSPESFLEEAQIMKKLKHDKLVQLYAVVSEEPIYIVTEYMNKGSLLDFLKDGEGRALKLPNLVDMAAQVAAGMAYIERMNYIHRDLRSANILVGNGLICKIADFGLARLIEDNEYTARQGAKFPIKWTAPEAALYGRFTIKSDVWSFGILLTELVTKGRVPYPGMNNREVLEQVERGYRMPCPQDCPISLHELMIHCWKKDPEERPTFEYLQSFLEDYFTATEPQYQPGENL

[37] = target: SIK1 (human) (UniProt P57059)
[38] = target: MKNK1 (human) (UniProt Q9BUB5)
[39] = target: EPHA7 (human) (UniProt Q15375)
[40] = target: STK24 (human) (UniProt Q9Y6E0)

Sequence of PKMYT1 (human) (Q99640 whole entry, looked up): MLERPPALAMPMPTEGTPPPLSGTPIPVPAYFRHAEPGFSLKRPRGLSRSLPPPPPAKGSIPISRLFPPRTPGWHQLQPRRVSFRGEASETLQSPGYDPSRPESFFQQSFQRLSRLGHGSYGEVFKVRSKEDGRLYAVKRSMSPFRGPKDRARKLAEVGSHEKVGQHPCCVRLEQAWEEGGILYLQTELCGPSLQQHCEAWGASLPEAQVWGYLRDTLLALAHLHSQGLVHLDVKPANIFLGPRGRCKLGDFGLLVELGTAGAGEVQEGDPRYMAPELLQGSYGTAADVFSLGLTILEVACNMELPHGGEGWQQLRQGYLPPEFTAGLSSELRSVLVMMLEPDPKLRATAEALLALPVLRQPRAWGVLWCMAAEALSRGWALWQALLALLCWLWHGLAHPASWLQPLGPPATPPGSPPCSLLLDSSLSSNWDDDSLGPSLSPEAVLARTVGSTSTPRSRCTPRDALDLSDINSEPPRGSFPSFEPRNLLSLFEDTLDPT

| Compound | kinase still bound, per cent of control [1] [%] | kinase still bound, per cent of control [2] [%] | kinase still bound, per cent of control [3] [%] | kinase still bound, per cent of control [4] [%] | kinase still bound, per cent of control [5] [%] | kinase still bound, per cent of control [6] [%] | kinase still bound, per cent of control [7] [%] | kinase still bound, per cent of control [8] [%] | kinase still bound, per cent of control [9] [%] | kinase still bound, per cent of control [10] [%] | kinase still bound, per cent of control [11] [%] | kinase still bound, per cent of control [12] [%] | kinase still bound, per cent of control [13] [%] | kinase still bound, per cent of control [14] [%] | kinase still bound, per cent of control [15] [%] | kinase still bound, per cent of control [16] [%] | kinase still bound, per cent of control [17] [%] | kinase still bound, per cent of control [18] [%] | kinase still bound, per cent of control [19] [%] | kinase still bound, per cent of control [20] [%] | also measured |
| --- | --- | --- | --- | --- | --- | --- | --- | --- | --- | --- | --- | --- | --- | --- | --- | --- | --- | --- | --- | --- | --- |
| COc1cc2ncnc(Nc3cccc(Cl)c3)c2cc1OC | 48 | 6.1 | 100 | 78 | 63 | 69 | 39 | 100 | 18 | 19 | 100 | 78 | 77 | 93 | 67 | 100 | 75 | 93 | 67 | 34 | kinase still bound, per cent of control [21]: 67%; kinase still bound, per cent of control [22]: 49%; kinase still bound, per cent of control [23]: 52%; kinase still bound, per cent of control [24]: 85%; kinase still bound, per cent of control [25]: 37%; kinase still bound, per cent of control [26]: 100%; kinase still bound, per cent of control [27]: 93%; kinase still bound, per cent of control [28]: 100%; kinase still bound, per cent of control [29]: 86%; kinase still bound, per cent of control [30]: 38%; kinase still bound, per cent of control [31]: 87%; kinase still bound, per cent of control [32]: 100%; kinase still bound, per cent of control [33]: 100%; kinase still bound, per cent of control [34]: 72% and 91%; kinase still bound, per cent of control [35]: 54%; kinase still bound, per cent of control [36]: 81%; kinase still bound, per cent of control [37]: 100%; kinase still bound, per cent of control [38]: 4.6%; kinase still bound, per cent of control [39]: 46%; kinase still bound, per cent of control [40]: 87% |
| CCN1CCN(Cc2ccc(NC(=O)c3ccc(C)c(/C=C/c4cnc5[nH]ccc5c4OC)c3)cc2C(F)(F)F)CC1 | 100 | 5.5 | 100 | 71 | 5.7 | 18 | 34 | 28 | 26 | 1.8 | 0.1 | 0 | 89 | 31 | 14 | 67 | 2.4 | 100 | 1.8 | 100 | kinase still bound, per cent of control [21]: 100%; kinase still bound, per cent of control [22]: 100%; kinase still bound, per cent of control [23]: 80%; kinase still bound, per cent of control [24]: 83%; kinase still bound, per cent of control [25]: 2.8%; kinase still bound, per cent of control [26]: 34%; kinase still bound, per cent of control [27]: 4.3%; kinase still bound, per cent of control [28]: 100%; kinase still bound, per cent of control [29]: 0.75%; kinase still bound, per cent of control [30]: 0.15%; kinase still bound, per cent of control [31]: 0.95%; kinase still bound, per cent of control [32]: 67%; kinase still bound, per cent of control [33]: 21%; kinase still bound, per cent of control [34]: 0%; kinase still bound, per cent of control [35]: 0.3%; kinase still bound, per cent of control [36]: 1.2%; kinase still bound, per cent of control [37]: 0.9%; kinase still bound, per cent of control [38]: 68%; kinase still bound, per cent of control [39]: 16%; kinase still bound, per cent of control [40]: 20% |

— the kinase profiling compilation of Christmann-Franck et al. (2016)
